Assay results from article PMC3078936 (PLoS ONE, 2011).

Target: T1, DYNLL1 (Homo sapiens, UniProt P63167)
T1 construct: 6xHis (N); made in house; host or cells: E. coli BL21(DE3)Star
Assay: Isothermal titration calorimetry of peptide/protein binding to DYNLL1
Conditions: PBS + 3 mM 2-mercaptoethanol pH 7.4, 299 K; for ΔH: ITC binding enthalpy; for -TΔS: ITC entropy term; for Kd: ITC, 15 µM DYNLL1 in the cell, A + B to AB model, dimeric peptides reach the dynamic range limit of ITC
Procedure: Binding parameters of the in vitro evolved Ac-[…] and naturally evolved Ac-DKSTQTD consensus peptides were determined by isothermal titration calorimetry (ITC). Synthetic peptides were used and N-terminal acetylation was applied to better mimic a non-terminal peptide motif by avoiding the positively charged N-terminus. In order to elucidate the particular contribution of Val-5 to the binding affinity, several control peptides were produced. The in vitro evolved Val-5 was replaced with a glycine (Gly-5) to assess side chain function. In a further truncated variant the entire amino acid residue was replaced with an acetate group (Ac-5) to assess the function of the amide group at position −5. The same variations of Val-5, Gly-5 or Ac-5 were also introduced in the framework of the naturally evolved consensus peptide. DYNNL1 binding of all six variants was analyzed by ITC. In all measurements the stoichiometry of binding was 1∶1 (2 peptides binding to one homodimer DYNNL1). The binding was enthalpy-driven and was accompanied with unfavorable entropy change. Ac-5 versions of both the natural and the in vitro evolved consensus peptide had binding affinities in the micromolar range. Replacing the acetyl group with Gly-5 led to a tenfold affinity increase with both peptides.
All peptides and DYNLL1 were dialyzed overnight in PBS buffer supplemented with 3 mM 2-mercaptoethanol (pH 7.4). A typical binding experiment involved 15 µM DYNLL1 in the cell and 30–40 injections varying between of 3–5 µl peptide solution. For each experiment the thermodynamic parameters were determined at 299 K. We used a VP-ITC instrument from Microcal and the data were fitted by the software package Origin 5.0 (OriginLab) using the simple A + B to AB binding model. The signal from an initial 2 µl injection was eliminated. The equilibration time between injections was 900 sec.

T1 sequence (P63167 whole entry): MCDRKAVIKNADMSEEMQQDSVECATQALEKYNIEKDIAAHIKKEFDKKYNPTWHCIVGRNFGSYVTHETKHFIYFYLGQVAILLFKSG

| Substance | ΔH [kcal/mol] | -TΔS [kcal/mol] | Kd [nM] |
| --- | --- | --- | --- |
| dimeric-GSGSRGTQTE [recombinant GCN4 leucine zipper-fused, dimerized Gly-5 in vitro evolved peptide] | -16.6 | <4.92 | < 3 |
| dimeric-GSVSRGTQTE [recombinant GCN4 leucine zipper-fused, dimerized in vitro evolved consensus peptide] | -15.5 | <4.21 | < 7 |
| dimeric-GSVDKSTQTD [recombinant GCN4 leucine zipper-fused, dimerized Val-5 natural consensus peptide] | -21 | <10 | < 9 |
| dimeric-GSGDKSTQTD [recombinant GCN4 leucine zipper-fused, dimerized Gly-5 natural consensus peptide] | -18.2 | <7.03 | < 7 |
